In patent US7141590B2, “Pharmaceutical uses and synthesis of nicotinanilide-N-oxides” (UCB SA, priority 2000, dated 2006):
Values joined by “and” are separate entries in the source; they are usually repeats but may differ in a detail not shown here. Identical values can stand only once.

T1: human CXCR2 (IL8RB) chemokine receptor (Homo sapiens, UniProt P25025)
T1 construct: host or cells: CHO cells
T1 sequence (P25025 1-360): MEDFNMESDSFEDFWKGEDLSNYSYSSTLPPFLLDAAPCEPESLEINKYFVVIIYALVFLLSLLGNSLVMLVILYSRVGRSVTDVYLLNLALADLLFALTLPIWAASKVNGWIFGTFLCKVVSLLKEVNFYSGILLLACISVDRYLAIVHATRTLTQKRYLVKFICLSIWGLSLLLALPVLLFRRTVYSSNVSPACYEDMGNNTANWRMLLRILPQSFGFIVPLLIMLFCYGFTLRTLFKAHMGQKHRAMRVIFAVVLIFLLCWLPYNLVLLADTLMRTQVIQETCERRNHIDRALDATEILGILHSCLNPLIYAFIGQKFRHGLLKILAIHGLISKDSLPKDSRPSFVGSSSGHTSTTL

T2: human CXCR1 (IL8RA) chemokine receptor (Homo sapiens, UniProt P25024)
T2 construct: host or cells: CHO cells
T2 sequence (P25024 1-350): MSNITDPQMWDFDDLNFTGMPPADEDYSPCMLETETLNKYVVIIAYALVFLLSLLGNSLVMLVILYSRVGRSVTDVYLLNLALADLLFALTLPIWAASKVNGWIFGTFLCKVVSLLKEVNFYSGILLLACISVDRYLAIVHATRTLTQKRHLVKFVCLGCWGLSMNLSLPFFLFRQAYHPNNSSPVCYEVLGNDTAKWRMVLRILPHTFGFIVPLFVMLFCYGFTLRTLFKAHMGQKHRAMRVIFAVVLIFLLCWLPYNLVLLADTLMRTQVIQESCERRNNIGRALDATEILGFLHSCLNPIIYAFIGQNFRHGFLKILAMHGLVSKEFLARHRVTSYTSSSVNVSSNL

T3: human neuropeptide Y1 (NPY1) receptors (Homo sapiens, UniProt P25929)
T3 construct: host or cells: SK-N-MC (human neuroblastoma) cells
T3 sequence (P25929 1-384): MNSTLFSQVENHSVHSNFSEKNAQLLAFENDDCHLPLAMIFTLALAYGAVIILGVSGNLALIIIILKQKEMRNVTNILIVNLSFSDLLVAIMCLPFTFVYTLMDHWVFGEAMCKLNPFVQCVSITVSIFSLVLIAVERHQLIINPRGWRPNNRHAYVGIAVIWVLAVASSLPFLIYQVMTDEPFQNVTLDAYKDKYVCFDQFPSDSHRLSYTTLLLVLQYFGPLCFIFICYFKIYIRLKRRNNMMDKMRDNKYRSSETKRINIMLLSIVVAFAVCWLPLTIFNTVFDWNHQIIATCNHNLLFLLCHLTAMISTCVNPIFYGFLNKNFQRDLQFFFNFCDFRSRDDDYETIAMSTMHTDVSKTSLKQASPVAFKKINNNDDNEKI

B1: NAP-2: Neutrophil Activating Peptide-2 (protein, UniProt P02775 59-128, looked up)
Neutrophil-activating peptide …: AELRCMCIKTTSGIHPKNIQSLEVIGKGTHCNQVEVIATLKDGRKICLDPDAPRIKKIVQKKLAGDESAD
modifications: Neutrophil-activating peptide 2

Legend:
[1] = molecular target: T1, human CXCR2 (IL8RB) chemokine receptor; experiment: Panlabs CXCR2 filtermat binding assay ([125I]Interleukin-8); details: 1 h, screened at 10 μM, read-out: CXCR2 specific binding (%)
Procedure: Selected compounds were screened by Panlabs (Bothell Wash.) using their CXCR2 filtermat binding assay. This assay measures binding of [^125I]Interleukin-8 to human interleukin-CXCR2 (IL8RB) receptors and is also described in Ahuja, S. K. and Murphy, P. M., J. Biol. Chem. 271:20545–20550, 1996. In summary, CHO cells stably transfected with a plasmid encoding the human CXCR2 (IL8RB) chemokine receptor were used to prepare membranes in modified HEPES pH 7.4 buffer. A 2 μg aliquot of membrane was incubated with 15 pM [^125I]Interleukin-8 for 60 minutes at room temperature. Non-specific binding was estimated in the presence of 10 nM interleukin-8. Membranes were filtered and washed 3 times and the filters were counted to determine [^125I]Interleukin-8 specifically bound. Compounds were screened at 10 μM and results are reported in terms of Specific Binding (%) in Tables 3–5.
This assay measures binding of [^125I]Interleukin-8 to human interleukin-CXCR2 (IL8RB) receptors. See Ahuja, S. K. and Murphy, P. M., J. Biol. Chem. 271: 20545–20550, 1996, for details. In brief, CHO cells stably transfected with a plasmid encoding the human CXCR2 (IL8RB) chemokine receptor were used to prepare membranes in modified HEPES pH 7.4 buffer using standard techniques. A 2 μg aliquot of membrane was incubated with 15 pM [^125I]Interleukin-8 for 60 minutes at room temperature. Non-specific binding was estimated in the presence of 10 nM interleukin-8. Membranes were filtered and washed 3 times and the filters were counted to determine [^125I]Interleukin-8 specifically bound. Compounds were screened at 10 μM, with the results reported in Table 6 (row titled “CXCR2”) in terms of specific binding (%).

[2] = molecular target: T4, human chemokine CCR5 receptor (Homo sapiens, UniProt P51681); experiment: CCR5 assay ([125I]MIP-1β binding); details: 2 h; screened at 10 μM; Panlabs; read-out: CCR5 specific binding (%)
T4 construct: host or cells: CHO-K1-p242-CCR5 cells
T4 sequence (P51681 whole entry): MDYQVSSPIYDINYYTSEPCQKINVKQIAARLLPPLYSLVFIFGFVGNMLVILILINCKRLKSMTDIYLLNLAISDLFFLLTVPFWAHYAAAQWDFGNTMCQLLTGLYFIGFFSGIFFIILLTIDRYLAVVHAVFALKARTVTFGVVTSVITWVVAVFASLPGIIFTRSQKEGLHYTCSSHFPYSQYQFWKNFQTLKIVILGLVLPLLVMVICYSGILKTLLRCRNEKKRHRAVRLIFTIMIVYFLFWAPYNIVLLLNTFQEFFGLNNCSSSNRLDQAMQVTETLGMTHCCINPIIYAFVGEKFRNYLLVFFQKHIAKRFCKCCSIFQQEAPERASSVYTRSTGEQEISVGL
Procedure: This assay measures the binding of [^125I]MIP-1β to human chemokine CCR5 receptors. See Samson, M., et al., J. Biol. Chem. 272:24934–24941, 1997. In brief, CHO-K1-p242-CCR5 cells stably transfected with a plasmid encoding the human chemokine CCR5 receptor were used to prepare membranes in modified HEPES buffer at pH 7.4 using standard techniques. A 1 μg aliquot was incubated with 0.1 nM [^125I]MIP-1β for 120 minutes at 25° C. Non-specific binding was estimated in the presence of 0.1 μM MIP-1β. Membranes were filtered and washed 3 times and filters were counted to determine [^125I]MIP-1β specifically bound. Compounds were screened at 10 μM. The data obtained from this assay is reported in Table 6 (row titled “CCR5”), in terms of specific binding (%).

[3] = molecular target: T2, human CXCR1 (IL8RA) chemokine receptor; experiment: CXCR1 assay ([125I]Interleukin-8 binding); details: screened at 10 μM; Panlabs; read-out: CXCR1 specific binding (%)
Procedure: This assay measures binding of [^125I]Interleukin-8 to human interleukin-CXCR1 (ILR8A) receptors. See Ahuja, S. K. and Murphy, P. M. J. Biol. Chem. 271:20545–20550, 1996 for details. In brief, CHO cells stably transfected with a plasmid encoding the human CXCR1 (IL8RA) chemokine receptor were used to prepare membranes in modified HEPES pH 7.4 buffer using standard techniques. A 5 μg aliquot of membrane was incubated with 8 pM [^125I]Interleukin-8 for 60 minutes at room temperature. Non-specific binding was estimated in the presence of 10 nM interleukin-8. Membranes were filtered and washed 3 times and the filters were counted to determine [^125I]Interleukin-8 specifically bound. Compounds were screened at 10 μM, with the data reported in Table 6 (row titled “CXCR1”) in terms of specific binding (%).

[4] = molecular target: T3, human neuropeptide Y1 (NPY1) receptors; experiment: NPY1 assay ([125I]Peptide YY binding, SK-N-MC cells); details: screened at 10 μM; Panlabs
Procedure: This assay measures binding of [^125I]Peptide YY (PYY) to human neuropeptide Y1 (NPY1) receptors. See Fuhlendorff, J., et al. Proc. Natl Acad. Sci. USA 87:182–186, 1990 and Sheikh, S. P., et al. J. Biol. Chem. 264: 6648–6654, 1989. In brief, SK-N-MC (human neuroblastoma) cells were used in modified HBSS pH 7.4 buffer using standard techniques. The cells (10^6) were incubated with 12.5 pM [^125I]PYY for 45 minutes at 25° C. […] Cells were centrifuged and pellets were counted to determine [^125I]PYY specifically bound. Compounds were screened at 10 μM, with the results shown in Table 6 (row titled “NPY1”), reported in terms of specific binding (%).

somatostatin receptors = experiment: Somatostatin assay ([125I]tyr1 Somatostatin binding, AtT-20 membranes); design: species or system mouse; details: screened at 10 μM; Panlabs
Procedure: This assay measures binding of [^125I]tyr^1 Somatostatin to somatostatin receptors. See Thermos, K. and Reisine, T. Mol. Pharmacol. 33:370–377, 1988, and Srikant, C. B. and Heisler, S., Endocrinology 117:271–278, 1985. In brief, AtT-20 (mouse pituitary) cells were used to prepare membranes in modified Tris-HCl pH 7.5 buffer using standard techniques. A 200 μg aliquot of membrane was incubated with 0.04 nM [^125I]tyr^1 Somatostatin for 60 minutes at 25° C. Non-specific binding was estimated in the presence of 1 μM somatostatin-14. Membranes were filtered and washed 3 times and the filters were counted to determine [^125I]tyr^1 Somatostatin specifically bound. Compounds were screened at 10 μM, with the data reported in Table 6 (row titled “Somat.”) in terms of specific binding (%).

[5] = molecular target: T1, human CXCR2 (IL8RB) chemokine receptor; details: CXCR2 reference data; cited from earlier work
[6] = molecular target: T2, human CXCR1 (IL8RA) chemokine receptor; details: CXCR1 reference data; cited from earlier work

Molecule	remaining activity at 10 µM [1] [%]	remaining activity at 10 µM [2] [%]	remaining activity at 10 µM [3] [%]	NPY1 specific binding (%) [4]	Somat. specific binding (%) (somatostatin receptors)	IC50 [5] [nM]	Ki [5]	nH [5]	IC50 [6] [µM]	Ki [6] [pM]	nH [6]
O=C(Nc1ccc(F)c(F)c1)c1ccc(Cl)[n+]([O-])c1 [drawing 135]	> 40	≤ 40	≤ 40								
O=C(Nc1ccc(F)cc1)c1ccc(S(=O)(=O)c2ccccc2)[n+]([O-])c1 [drawing 130]	> 40	≤ 40	> 40	* (“*” indicates a value of less than or equal to 40)	* (“*” indicates a value of less than or equal to 40)						
CCCS(=O)(=O)c1ccc(C(=O)Nc2ccc(F)cc2)c[n+]1[O-] [drawing 132]	> 40	> 40	≤ 40	** (“**” indicates a value of greater than 40)	* (“*” indicates a value of less than or equal to 40)						
O=C(Nc1ccc(F)cc1)c1ccc(S(=O)(=O)Cc2ccccc2)[n+]([O-])c1 [drawing 133]	> 40	≤ 40	≤ 40	* (“*” indicates a value of less than or equal to 40)	* (“*” indicates a value of less than or equal to 40)						
GROα (or MGSA): Growth Regulatory Oncogene α; Melanoma Growth Stimulatory Activity; CXC chemokine						0.098	0.098 nM and 0.068 nM	0.9	> 10		
O=C(Nc1ccc(F)cc1)c1ccc(Cl)[n+]([O-])c1 [drawing 128]	> 40		> 40	* (“*” indicates a value of less than or equal to 40)	* (“*” indicates a value of less than or equal to 40)						
O=C(Nc1ccc(F)cc1)c1cc(Cl)c(Cl)[n+]([O-])c1 [drawing 136]	> 40	≤ 40	> 40		* (“*” indicates a value of less than or equal to 40)						
CCS(=O)(=O)c1ccc(C(=O)Nc2ccc(F)cc2)c[n+]1[O-] [drawing 131]	> 40	> 40	≤ 40	** (“**” indicates a value of greater than 40)	* (“*” indicates a value of less than or equal to 40)						
Interleukin-8: CXC chemokine; standard reference agent used in CXCR1 and CXCR2 binding assays						0.035	0.024 nM	0.7	3.5e-05	7	1.0
CS(=O)(=O)c1ccc(C(=O)Nc2ccc(F)cc2)c[n+]1[O-] [drawing 129]	> 40	> 40	> 40	** (“**” indicates a value of greater than 40)	** (“**” indicates a value of greater than 40)						
O=C(Nc1ccc(F)cc1)c1ccc(S(=O)(=O)C2CCCC2)[n+]([O-])c1 [drawing 134]	> 40	> 40	≤ 40	* (“*” indicates a value of less than or equal to 40)	* (“*” indicates a value of less than or equal to 40)						
B1						3.1	2.2 nM	0.6	> 10		
